Source: patent US20250170266A1 (ZYMEWORKS BC INC., priority 2022, published 2025)
Where two headings read alike, the source gives them in different places.

Experiments:
Format in all cases: cell-based
[1] = molecular target: T1, mTLR7 (Mus musculus, UniProt P58681); test: Reporter Gene Assay (RGA), HEK-Blue mTLR7 reporter cells, SEAP readout; settings: overnight incubation, SEAP absorbance 620 nm
T1 construct: host or cells: HEK-Blue mTLR7 reporter cells (HEK293-derived, own knowledge)
T1 sequence (P58681 27-1050): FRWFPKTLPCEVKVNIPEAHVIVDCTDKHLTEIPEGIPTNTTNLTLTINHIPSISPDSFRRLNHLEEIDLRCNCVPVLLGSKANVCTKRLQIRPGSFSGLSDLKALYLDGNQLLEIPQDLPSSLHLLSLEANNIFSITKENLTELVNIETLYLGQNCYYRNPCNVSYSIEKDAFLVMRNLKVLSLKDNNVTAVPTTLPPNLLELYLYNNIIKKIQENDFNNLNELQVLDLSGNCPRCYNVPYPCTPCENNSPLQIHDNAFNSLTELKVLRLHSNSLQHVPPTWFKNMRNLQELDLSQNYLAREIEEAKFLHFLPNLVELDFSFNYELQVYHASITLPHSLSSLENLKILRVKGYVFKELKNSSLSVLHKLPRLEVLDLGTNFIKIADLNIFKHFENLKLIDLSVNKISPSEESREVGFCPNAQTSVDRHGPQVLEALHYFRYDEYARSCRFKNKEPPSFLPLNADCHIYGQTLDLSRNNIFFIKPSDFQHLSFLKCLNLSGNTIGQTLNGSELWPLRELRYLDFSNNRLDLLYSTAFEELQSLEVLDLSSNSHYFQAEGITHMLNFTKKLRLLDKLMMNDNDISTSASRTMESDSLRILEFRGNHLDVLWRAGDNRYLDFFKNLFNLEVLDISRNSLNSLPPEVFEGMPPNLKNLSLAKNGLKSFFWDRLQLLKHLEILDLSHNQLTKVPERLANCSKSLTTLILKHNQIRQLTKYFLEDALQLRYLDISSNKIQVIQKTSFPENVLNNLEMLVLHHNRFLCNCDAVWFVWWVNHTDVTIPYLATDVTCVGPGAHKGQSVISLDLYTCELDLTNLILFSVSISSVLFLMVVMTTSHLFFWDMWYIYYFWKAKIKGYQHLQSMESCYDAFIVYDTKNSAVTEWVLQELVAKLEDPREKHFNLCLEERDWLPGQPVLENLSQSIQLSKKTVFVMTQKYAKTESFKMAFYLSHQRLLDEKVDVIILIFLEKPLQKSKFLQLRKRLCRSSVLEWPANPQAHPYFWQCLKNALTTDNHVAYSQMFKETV
Procedure, shortened: (§1)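 HEK-Blue reporter cells expressing human or mouse TLR7 (1.5×10^4 cells) were treated with an 11-point, 4-fold compound titration from 15 pM in HEK-Blue Detection medium. Incubation was overnight at 37° C with 5% CO2. Secreted embryonic alkaline phosphatase was read as absorbance at 620 nm.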

[2] = system: Mouse splenocytes; test: Mouse Splenocyte Assay, cytokine release (HTRF); settings: 24 hours, mIL6 in supernatant; for EC50: Splenocyte, read-out: Splenocyte IL6 EC50
Procedure, shortened: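 Splenocytes from female balb/c nude mice, thawed, 100,000 per well in RPMI + 10% FBS. Exposed for 24 h at 37 °C to a 4-fold 11-point compound titration from 15 μM; supernatant mIL6 and mTNFα measured by HTRF.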

[3] = molecular target: T2, hTLR7 (Homo sapiens, UniProt Q9NYK1); test: Reporter Gene Assay (RGA), HEK-Blue hTLR7 reporter cells, SEAP readout; settings: overnight incubation, SEAP absorbance 620 nm
T2 construct: host or cells: HEK-Blue hTLR7 reporter cells (HEK293-derived, own knowledge)
T2 sequence (Q9NYK1 27-1049): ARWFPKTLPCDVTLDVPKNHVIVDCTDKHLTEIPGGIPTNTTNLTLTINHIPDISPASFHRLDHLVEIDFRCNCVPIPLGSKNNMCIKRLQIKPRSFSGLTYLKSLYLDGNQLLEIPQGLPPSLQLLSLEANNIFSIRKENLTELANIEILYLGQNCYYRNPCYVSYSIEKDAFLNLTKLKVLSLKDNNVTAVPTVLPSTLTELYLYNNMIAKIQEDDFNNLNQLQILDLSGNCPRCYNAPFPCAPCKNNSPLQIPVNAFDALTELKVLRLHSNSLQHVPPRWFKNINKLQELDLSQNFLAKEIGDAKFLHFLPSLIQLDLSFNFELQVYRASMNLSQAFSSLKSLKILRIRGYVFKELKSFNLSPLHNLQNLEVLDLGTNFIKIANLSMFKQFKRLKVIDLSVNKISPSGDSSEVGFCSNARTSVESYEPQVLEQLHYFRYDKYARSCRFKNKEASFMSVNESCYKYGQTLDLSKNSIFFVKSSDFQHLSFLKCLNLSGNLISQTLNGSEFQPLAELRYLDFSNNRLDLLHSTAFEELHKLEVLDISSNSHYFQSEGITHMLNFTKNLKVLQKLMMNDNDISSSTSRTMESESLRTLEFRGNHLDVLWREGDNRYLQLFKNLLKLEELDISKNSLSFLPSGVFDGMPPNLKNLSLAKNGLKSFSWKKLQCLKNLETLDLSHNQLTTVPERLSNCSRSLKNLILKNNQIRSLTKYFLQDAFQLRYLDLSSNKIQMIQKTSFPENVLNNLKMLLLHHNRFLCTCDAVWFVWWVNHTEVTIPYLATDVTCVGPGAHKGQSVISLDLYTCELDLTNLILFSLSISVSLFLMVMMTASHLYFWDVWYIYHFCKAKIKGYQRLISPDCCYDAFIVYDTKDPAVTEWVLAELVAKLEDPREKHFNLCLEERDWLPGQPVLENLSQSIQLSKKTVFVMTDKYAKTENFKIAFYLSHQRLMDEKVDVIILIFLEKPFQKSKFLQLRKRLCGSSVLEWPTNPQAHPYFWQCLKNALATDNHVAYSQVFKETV
Procedure, shortened: as §1

[4] = system: Human peripheral blood mononuclear cells (PBMCs); test: Human PBMC Assay, cytokine release (HTRF); settings: PBMC, 24 hours
Procedure, shortened: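 Cryopreserved human PBMCs, rested overnight with 10 ng/ml hIL3, then 300,000 cells/well treated 24 h at 37° C with compound (4-fold, 11-point titration from 15 μM) in RPMI+10% FBS. Supernatant hIL6, hTNFα and hIFNα measured by HTRF; growth medium as negative control.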

[5] = hIFNα in supernatant, EC50 values approximated and divided into groups, read-out: PBMC IFNa EC50
[6] = hIL6 in supernatant, read-out: PBMC IL6 EC50

SMILES	EC50 [1] [nM]	EC50 [2] [nM]	EC50 [3] [nM]	EC50 [4, 5] [nM]	EC50 [4, 6] [nM]	Splenocyte IL6 EC50 (nM) [2]
CCOc1nc(N)c2nc(O)n(Cc3ccc(CNCc4ccc(CN5CCOCC5)cc4)cc3OC)c2n1 [Compound 142, 6-amino-2-ethoxy-9-(2-methoxy-4-(((4-(morpholinomethyl)benzyl)amino)-methyl)benzyl)-9H-purin-8-ol]	14.6	9.9	2.6	< 0.1	13.6	–
CCOc1nc(N)c2nc(O)n(Cc3ccc(CNCc4ccc(CN5CCC(NC(=O)OC(C)(C)C)CC5)cc4)cc3OC)c2n1 [Compound 143, tert-butyl-(1-(4-(((4-((6-amino-2-ethoxy-8-hydroxy-9H-purin-9-yl)methyl)-3-methoxybenzyl)amino)methyl)benzyl)piperidin-4-yl)carbamate]	15.1	9.6	0.2	< 0.1	27.1	–
CCOc1nc(N)c2nc(O)n(Cc3ccc(CNCc4ccc(CN5CCC(N)CC5)cc4)cc3OC)c2n1 [Compound 144, 6-amino-9-(4-(((4-((4-aminopiperidin-1-yl)methyl)benzyl)amino)methyl)-2-methoxybenzyl)-2-ethoxy-9H-purin-8-ol]	1330	372	79.5	> 10	191	–
CCOc1nc(N)c2nc(O)n(Cc3ccc(CNCc4ccc(CN5CCNCC5)cc4)cc3OC)c2n1 [Compound 145, 6-amino-2-ethoxy-9-(2-methoxy-4-(((4-(piperazin-1-ylmethyl)benzyl)amino)-methyl)benzyl)-9H-purin-8-ol]	142	338	69	–	126	–
CCOc1nc(N)c2nc(O)n(Cc3ccc(CNCc4ccc(CNCc5ccc(CN)cc5)cc4)cc3OC)c2n1 [Compound 146, 6-amino-9-(4-(((4-(((4-(aminomethyl)benzyl)amino)methyl)benzyl)amino)-methyl)-2-methoxybenzyl)-2-ethoxy-9H-purin-8-ol]	28.7	12.9	5.8	< 0.1	16.7	–
CCOc1nc(N)c2nc(O)n(Cc3ccc(CNCc4ccc(CNCc5ccccc5)cc4)cc3OC)c2n1 [Compound 147, 6-amino-9-(4-(((4-((benzylamino)methyl)benzyl)amino)methyl)-2-methoxy-benzyl)-2-ethoxy-9H-purin-8-ol]	16.9	13.2	0.9	< 0.1	38.8	–
CCOc1nc(N)c2nc(O)n(Cc3ccc(CN4CCNCC4)cc3)c2n1 [Compound 150, 6-amino-2-ethoxy-9-(4-(piperazin-1-ylmethyl)benzyl)-9H-purin-8-ol]	83.8	2130	6.9	0.1 to 1	322	–
CCOc1nc(N)c2nc(O)n(Cc3ccc(CNCc4ccc(CN(CC(=O)O)CC(=O)O)cc4)cc3OC)c2n1 [Compound 151, 2,2′-((4-(((4-((6-amino-2-ethoxy-8-hydroxy-9H-purin-9-yl)methyl)-3-methoxy-benzyl)amino)methyl)benzyl)azanediyl)diacetic Acid]	125	68.8	12.1	> 10	59.2	–
CCOc1nc(N)c2nc(O)n(Cc3ccc(CN4CCNCC4)cc3F)c2n1 [Compound 152, 6-amino-2-ethoxy-9-(2-fluoro-4-(piperazin-1-ylmethyl)benzyl)-9H-purin-8-ol]	31.7	–	1.3	0.1 to 1	17	inactive
CCOc1nc(N)c2nc(O)n(Cc3ccc(CN4CCC(N)CC4)cc3F)c2n1 [Compound 153, 6-amino-9-(4-((4-aminopiperidin-1-yl)methyl)-2-fluorobenzyl)-2-ethoxy-9H-purin-8-ol]	263	–	6.1	> 10	39	inactive
CCCCOc1nc(N)c2nc(O)n(Cc3ccc(CN4CCNCC4)cc3OC)c2n1 [Compound 154, 6-amino-2-butoxy-9-(2-methoxy-4-(piperazin-1-ylmethyl)benzyl)-9H-purin-8-ol]	2.9	217	0.2	> 10	1970	–
CCCCOc1nc(N)c2nc(O)n(Cc3ccc(CN4CCC(N)CC4)cc3OC)c2n1 [Compound 155, 6-amino-9-(4-((4-aminopiperidin-1-yl)methyl)-2-methoxybenzyl)-2-butoxy-9H-purin-8-ol]	9.2	148	0.2	> 10	878	–
CCCCOc1nc(N)c2nc(O)n(Cc3ccc(CN4CCC(CN)CC4)cc3OC)c2n1 [Compound 156, 6-amino-9-(4-((4-(aminomethyl)piperidin-1-yl)methyl)-2-methoxybenzyl)-2-butoxy-9H-purin-8-ol]	0.3	2.5	0.3	> 10	–	–
CCCCOc1nc(N)c2nc(O)n(Cc3ccc(CN4CCC5(CCNCC5)CC4)cc3OC)c2n1 [Compound 157, 9-(4-((3,9-diazaspiro[5.5]undecan-3-yl)methyl)-2-methoxybenzyl)-6-amino-2-butoxy-9H-purin-8-ol]	3.7	9.4	0.9	> 10	473	–
CCCCOc1nc(N)c2nc(O)n(Cc3ccc(CN4CCC(CCN)CC4)cc3OC)c2n1 [Compound 158, 6-amino-9-(4-((4-(2-aminoethyl)piperidin-1-yl)methyl)-2-methoxybenzyl)-2-butoxy-9H-purin-8-ol]	0.1	3.2	0.1	1 to 10	–	–
CCCCOc1nc(N)c2nc(O)n(Cc3ccc(CNCC(C)(C)O)cc3OC)c2n1 [Compound 159, 6-amino-2-butoxy-9-(4-(((2-hydroxy-2-methylpropyl)amino)methyl)-2-methoxybenzyl)-9H-purin-8-ol]	2.9	2	1.6	< 0.1	–	–
